Assay results reported in patent US9839643B2, “Palladium complex with high anticancer activity” (ULUDAG ÜNIVERSITESI TTO, priority 2014, dated 2017).

Assays:
A549 = format: cell-based; details: 48 hour incubation, unit not given (tested from 100 μM); for GI50: read-out: GI50 (dose inhibiting 50% cell growth); for CC50: read-out: LC50 (dose killing 50% of initially seeded cells)
Experimental: (§1) Anticancer activity tests were made on colon (HCT116, HT29, HCT15), lung (A549, H460) and ovarian (OVCARS, OVCAR3, NCI-ADRRES) cancer cell lines in vitro. All cell lines were obtained from American Type Culture Collection (Manassas, Va., USA) or American National Cancer Institute (NCl, USA). All cell lines were grown in RPMI1640 medium supplemented with 25 mM HEPES, 2 mM L-Glutamine, 5-10% fetal calf serum and antibiotics at 37° C. in a humidified 5% CO2 atmosphere.
(§2) The effect of the aforementioned compound on the selected cell lines indicated above was tested with Sulforhodamine B (SRB) assay that is also used by American National Cancer Institute. 100 μL of cancer cells were seeded at densities between 5.000-40.000 per well of a 96 well plate. The cells were incubated for 24 h for adaptation. […] The tested complex was dissolved in DMSO at 100 μM initial concentration and diluted to obtain 10 different concentrations as 1:2, 1:4 or 1:10. Every different concentration was analyzed in triplicates and in two independent experiments. The cells were fixed with 50% (w/v) ice-cold TCA in situ after 48 hour incubation. SRB dye bound to the cells was dissolved by unbuffered 10 mM Tris solution and absorbance values were measured at 530 nm in an ELISA microplate reader. Percentages for cell growth that were calculated from absorbance measurements (initial: TZ, control: C, complex at different concentrations: Ti) are as described below:
(§3) Gl50 (dose inhibiting 50% cell growth)=[Ti−Tz)/(C-Tz)]×100=50
(§4) TGI (total growth inhibition): Ti=Tz
(§5) LC50 (dose killing 50% of initially seeded cells)=[(Ti−Tz)/Tz]×100=−50

H460 = format: cell-based; details: 48 hour incubation, unit not given (tested from 100 μM); for GI50: read-out: GI50 (dose inhibiting 50% cell growth); for CC50: read-out: LC50 (dose killing 50% of initially seeded cells)
Experimental: as §1, §2, §3, §4, §5

HCT116 = format: cell-based; details: for TGI (total growth inhibition) / GI50 / CC50: 48 hour incubation, unit not given (tested from 100 μM); for GI50: read-out: GI50 (dose inhibiting 50% cell growth); for CC50: read-out: LC50 (dose killing 50% of initially seeded cells)
Experimental: as §1, §2, §3, §4, §5

HCT15 = format: cell-based; details: for TGI (total growth inhibition) / GI50 / CC50: 48 hour incubation, unit not given (tested from 100 μM); for GI50: read-out: GI50 (dose inhibiting 50% cell growth); for CC50: read-out: LC50 (dose killing 50% of initially seeded cells)
Experimental: as §1, §2, §3, §4, §5

HT29 = format: cell-based; details: for TGI (total growth inhibition) / GI50 / CC50: 48 hour incubation, unit not given (tested from 100 μM); for GI50: read-out: GI50 (dose inhibiting 50% cell growth); for CC50: read-out: LC50 (dose killing 50% of initially seeded cells)
Experimental: as §1, §2, §3, §4, §5

NCI-ADRRES = format: cell-based; details: 48 hour incubation, unit not given (tested from 100 μM); for GI50: read-out: GI50 (dose inhibiting 50% cell growth); for CC50: read-out: LC50 (dose killing 50% of initially seeded cells)
Experimental: as §1, §2, §3, §4, §5

OVCAR3 = format: cell-based; details: 48 hour incubation, unit not given (tested from 100 μM); for GI50: read-out: GI50 (dose inhibiting 50% cell growth)
Experimental: as §1, §2, §3, §4, §5

OVCAR5 = format: cell-based; details: 48 hour incubation, unit not given (tested from 100 μM); for GI50: read-out: GI50 (dose inhibiting 50% cell growth); for CC50: read-out: LC50 (dose killing 50% of initially seeded cells)
Experimental: as §1, §2, §3, §4, §5

HCT116 cancer cells = experiment: HCT116 xenograft study in NOD/SCID mice; format: in vivo; design: key to tumor size: tumor volume in mm^3, (a×b²)/2 from caliper length and width; details: for tumor size / ΔT/ΔC % value: HCT116 xenograft, complex 40 mg/kg, oxaliplatin 5 mg/kg; for tumor size: no unit in table (method gives tumor volume in mm^3); for ΔT/ΔC % value: day 22, highly active compounds have values less than 42%
Experimental: Xenograft studies were made by using HCT116 colon cancer cell lines after observing that the subject of the invention, palladium(II) complex, is especially effective on colon cancer cells. […] To obtain the xenografts, approximately 10^6 cells from exponentially growing HCT116 cells were intradermally injected in the axillae of 6-8 weeks old NOD/SCID mice by using the English double sided trocar implantation method. Two separate injections were made to each mouse. Two tumor inocula were added to each mouse in order to produce one tumor load for each mouse. […] These positive effects are the beneficial aspects of the English system.
Treatment was started in randomly chosen animal groups when the tumor volume reached 100-200 mm^3. […] The treatment was performed in 5 days of application and 2 days of resting periods. Tumor volume was calculated from [(axb^2)/2] formula. In this formula, a and b are tumor length and width which are measured by vernier caliper. Measurements were repeated twice weekly. Treated animals received a single dose from the drugs. Apart from tumor volume, ΔT/ΔC % values were calculated from ΔT═T−D0 and ΔC═C−D0 equations. D0 is the mean tumor volume at the beginning of the treatment, T is the mean tumor volume of treated mice and C is the mean tumor volume of untreated (not injected with complex) mice which is used as a control. […] Weight loss, neurological disorders and changes in diet were recorded as indication of toxicity (side effects). The experiments were terminated when the tumor volume reached approximately to 1000-1500 mm^3.

A549 cells = details: cited from earlier work
[1] = Day 19 (value equal in all groups, start of treatment)
[2] = versus cisplatin, oxaliplatin and carboplatin

Row | Compound | TGI (total growth inhibition) (A549) | GI50 (A549) [µM] | CC50 (A549) [µM] | TGI (total growth inhibition) (H460) | GI50 (H460) [µM] | CC50 (H460) [µM] | TGI (total growth inhibition) (HCT116) | GI50 (HCT116) [µM] | CC50 (HCT116) [µM] | TGI (total growth inhibition) (HCT15) | GI50 (HCT15) [µM] | CC50 (HCT15) [µM] | TGI (total growth inhibition) (HT29) | GI50 (HT29) [µM] | TGI (total growth inhibition) (NCI-ADRRES) | GI50 (NCI-ADRRES) [µM] | TGI (total growth inhibition) (OVCAR3) | GI50 (OVCAR3) [µM] | TGI (total growth inhibition) (OVCAR5) | GI50 (OVCAR5) [µM] | also measured
1 | N.N.O=C([O-])C1(C(=O)[O-])CCC1.[Pt+2] [Carboplatin, carboplatin] | >100 | > 100 | > 100 | >100 | > 100 | > 100 | >100 | > 100 | > 100 | >100 | > 100 | > 100 | >100 | > 100 | >100 | > 100 | >100 | > 100 | >100 | > 100 | CC50 (HT29): > 100 µM; CC50 (NCI-ADRRES): > 100 µM; CC50 (OVCAR5): > 100 µM
2 | N.N.[Cl][Pt][Cl] [Cisplatin, cisplatin] | 55.1 | 6.6 | – | 50.3 | 8.9 | – | 90.2 | 24.8 | – | 85.9 | 57.3 | – | 92.0 | 29.8 | >100 | 9.9 | >100 | 34.3 | >100 | 57.8 | –
3 | O=C1[O][Pt]2([NH][C@@H]3CCCC[C@H]3[NH]2)[O]C1=O [Oxaliplatin, oxaliplatin] | 58.2 | 4.4 | – | 95.6 | 6.8 | – | 64.1 | 0.9 | – | 17.2 | 6 | – | 56.5 | 6.3 | >100 | 24.8 | >100 | 9.1 | >100 | 50.7 | tumor size (HCT116 cancer cells; [1]): 245.96; tumor size (HCT116 cancer cells; Day 22): 361.82 ± 153.96; tumor size (HCT116 cancer cells; Day 26): 538.00 ± 203.51; tumor size (HCT116 cancer cells; Day 29): 622.29 ± 152.76; tumor size (HCT116 cancer cells; Day 33): 847.06 ± 176.45; ΔT/ΔC % value (HCT116 cancer cells): +70.60%
4 | CCC1(CC)C(=O)NC(=O)[N]([Pd-2]23[n+]4ccccc4C[NH+]2Cc2cccc[n+]23)C1=O.O.[Cl-] [[Pd(bpma)(barb)]Cl•H2O, [Pd(bpma)(barb)]Cl·H2O] | 80.1 | 43.1 | > 100 | 75.9 | 44.4 | > 100 | 9.1 | 4.9 | 82.4 | 9.9 | 6.8 | 89.1 | 6.6 | 3 | 10.0 | 5.6 | 25.2 | 6.5 | 63.5 | 40 | cytotoxic effect compared to anticancer drugs (HCT116; [2]): selectively effective; cytotoxic effect compared to anticancer drugs (HCT15; [2]): selectively effective; CC50 (HT29): 22 µM; cytotoxic effect compared to anticancer drugs (HT29; [2]): selectively effective; CC50 (NCI-ADRRES): > 100 µM; CC50 (OVCAR5): 87 µM; tumor size (HCT116 cancer cells; [1]): 245.96; tumor size (HCT116 cancer cells; Day 22): 195.61 ± 151.45; tumor size (HCT116 cancer cells; Day 26): 373.88 ± 157.42; tumor size (HCT116 cancer cells; Day 29): 577.38 ± 157.37; tumor size (HCT116 cancer cells; Day 33): 782.22 ± 228.55; decrease of tumor volume compared to oxaliplatin (HCT116 cancer cells; all time points of measurement, complex 40 mg/kg vs oxaliplatin 5 mg/kg): decreased the tumor volume more effectively than oxaliplatin in all time points of measurement; ΔT/ΔC % value (HCT116 cancer cells): −29.88%
5 | O.O.O=C1[N-]S(=O)(=O)c2ccccc21.[Cl][Pd-2]12[n+]3ccccc3C[NH+]1Cc1cccc[n+]12 [[Pd(bpma)Cl](sac)·2H2O] | – | – | – | – | – | – | – | – | – | – | – | – | – | – | – | – | – | – | – | – | cytotoxic effect (A549 cells): showed a cytotoxic effect on A549 cells, similar to cisplatin
